Each structure is given as a SMILES string.

The data set can be described thus: gradient 5% acetonitrile 3 min, to 50% in 2 min, to 85% in 15 min, held 3 min, 100 µL/min. The settings on record: column: Zorbax Extend-C18 2.1 x 50 mm; eluents: water / acetonitrile, 0.1% formic acid. The gist of the method:
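In both positive and negative ionization mode, a quadrupole time-of-flight mass spectrometer coupled to HPLC analyzed pure standards run in mixtures of ~100 molecules. The Zorbax Extend-C18 column (2.1 × 50 mm, 1.8 μm) was operated at 100 μL/min with water and acetonitrile, each containing 0.1% formic acid. The dead volume was 40 μL and the dwell volume 900 μL. Retention time came from adduct peaks that were computationally picked and individually inspected by hand.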
As to `Cn1c(=O)c(N2CCC(NC(=O)Nc3cccc(C(F)(F)F)c3)CC2)nc2ccccc21`, the RP-LC retention time turned out to be 1010 s. Take `O=C(Cn1nc2c3cc(-c4ccc(Cl)cc4)nn3ccn2c1=O)Nc1cc(F)ccc1F`: the RP-LC retention time turned out to be 1020 s. `Cc1nc(Nc2ccc(F)cn2)sc1C(=O)NC(C)c1ccccc1` (centres undefined) gave an RP-LC retention time of 861 s. The result for `CN(C)CCNC(=O)c1cc(N2CCCC2)n2nccc2n1` reads 590 s; that for `Cn1ccc2cc(S(=O)(=O)N3CCC(C(=O)N4CCN(c5ccccc5)CC4)CC3)ccc21`, 963 s; that for `Cc1nc(-c2ccc(OC3CCN(C(=O)NC4CCCC4)C3)cc2)no1` (centres undefined), 820 s. For `O=C(Cc1ccc(Cl)cc1)N1CCN(c2cc(-c3ccccc3)[nH]n2)CC1` the value was 841 s. For `Clc1ccccc1-c1ccc(CNc2ncn[nH]2)o1` the value was 676 s.

For `COc1ccc(C2C(C(=O)N3CCOCC3)c3cc(OC)c(OC)cc3C(=O)N2C)cc1OC` (centres undefined), the RP-LC retention time came to 637 s. `O=C(CCC1CCN(S(=O)(=O)c2ccccc2)CC1)N1CCOCC1` displayed an RP-LC retention time of 741 s. For the compound `Cc1csc(NC(=O)CSc2nn3c(=O)c(C)nnc3s2)n1`, the RP-LC retention time stood at 613 s. With `CCN1c2ccc(C)cc2C(=O)NC12CCN(C(=O)c1ccc(OC)cc1)CC2`, the RP-LC retention time was determined as 810 s. In the case of `CCNC(=O)c1ccc2c(c1)CCN2C(C)=O`, the RP-LC retention time came out at 609 s.

Regarding `CCc1cccc(NC(=O)N2C[C@@H](F)C[C@H]2C(=O)N2CCc3ccccc3C2)c1`, the RP-LC retention time was determined as 887 s. Compound `Cc1noc(C)c1S(=O)(=O)N1CC(c2nc(-c3ccncc3)nn2C)C1` showed an RP-LC retention time of 618 s. Compound `Cc1cc(C)nc(NS(=O)(=O)c2ccc(NC(=O)NC3CCCCC3)cc2)n1` had an RP-LC retention time of 686 s. Turning to `O=C(CC1CCCCC1)NC1CCN(c2cc(-c3cccnc3)[nH]n2)CC1`, the RP-LC retention time was determined as 633 s. Compound `Cc1cccc(N2CCN(Cc3nc4nc(C)cc(N5CCCC5)n4n3)CC2)c1` yielded an RP-LC retention time of 632 s.

Regarding `COCCN1C(=O)c2ccccc2C(C(=O)NCc2ccco2)C1c1ccc(F)cc1` (centres undefined), the RP-LC retention time worked out at 822 s.

For `CCc1nncn1C1CCN(S(=O)(=O)c2ccc(F)c(Cl)c2)CC1`, the RP-LC retention time was found to be 734 s. `CN1C(=O)C2CCCCN2c2ccc(C(=O)N3CCN(c4ccc(Cl)cc4)CC3)cc21` (centres undefined) yielded an RP-LC retention time of 1020 s. The result for `COc1cc(NC(=O)NC2COc3ccccc3C2)cc(OC)c1OC` (centres undefined) reads 773 s; that for `COc1ccc(C2C(C(=O)NC(C)C)c3ccccc3C(=O)N2C)cc1` (centres undefined), 730 s; that for `NC(=O)Cc1csc(NC(=O)c2coc(NC(=O)c3ccccc3)n2)n1`, 586 s. In the case of `CCn1ccc(C(=O)Nc2cccc(OCc3nnc(-c4ccc(Cl)cc4)o3)c2)n1`, the RP-LC retention time is 961 s. For `Cc1ccc(CN2CCCn3nc(C(=O)NCCc4c[nH]c5ccc(Cl)cc45)cc3C2=O)cc1` the value was 953 s; for `COc1nn(C)cc1C(=O)Nc1nnc(C)s1`, 583 s; for `COc1ccc2c(C)c(CCC(=O)N[C@H](C(=O)O)c3ccccc3)c(=O)oc2c1OC`, 719 s. For `COc1ccc(Cn2c(=O)c3sccc3n(Cc3nc(-c4ccccc4OC)no3)c2=O)cc1` the value was 970 s; for `CCc1nn2c(CNC(=O)c3ccc(F)cc3)c(-c3ccccc3)nc2s1`, 914 s.

For the compound `Cc1ccc(-c2ccc3nn(Cc4nc(-c5cccc(Br)c5)no4)c(=O)n3n2)cc1`, the RP-LC retention time came to 1070 s. `Cc1cc(NC(=O)Cn2nc3c4sc(N(C)C)nc4ncn3c2=O)ccc1Br` gave an RP-LC retention time of 778 s.

The compound `CC(NC(=O)C1CCN(c2cncnc2N2CCCC2)CC1)c1ccc(F)cc1` (centres undefined) had an RP-LC retention time of 648 s. In turn, `CC(=O)Nc1onc(C)c1-c1ccc(C)c(S(=O)(=O)NCc2ccc(N(C)C)cc2)c1` yielded an RP-LC retention time of 1170 s. In turn, `CC(C)NC(=O)c1ccc(-c2nc3cc(NS(=O)(=O)c4ccc(F)cc4F)ccc3n2C)cc1` yielded an RP-LC retention time of 697 s. The result for `CCOC(=O)c1c(NC(=O)CSc2nc(=O)n3cccc(C)c3n2)sc2c1CCC2` reads 950 s; that for `O=C(c1ccc(S(=O)(=O)c2ccccc2)s1)N1CCN(c2ccccn2)CC1`, 652 s; that for `O=C(CCNc1c(-c2ccccc2)nc2cnccn12)NCc1ccc(F)cc1`, 687 s. `CC(C)C(=O)Nc1cc2c(cc1S(=O)(=O)c1ccccc1)n(C)c(=O)n2C` gave an RP-LC retention time of 772 s. On to `CC1=C(C(=O)Nc2ccc(C(=O)N3CCN(c4ccc(Cl)cc4)CC3)cc2)SCCO1`, for which the RP-LC retention time is 957 s. For `CC(=O)NCc1csc(C2CCCN(C(=O)c3cc(F)cc(F)c3)C2)n1` (centres undefined) the value was 684 s; for `COc1cccc(CNC(=O)Cn2c(=O)cc(-c3nc(C)no3)c3ccccc32)c1`, 806 s. Take `COCc1ncc(C)n1C1CCN(C(=O)c2noc(C)c2Cc2c(C)noc2C)C1` (centres undefined): the RP-LC retention time is 617 s. The result for `Cc1cccc(-c2nc3ccccn3c2NC(=O)NCc2cccc(F)c2)c1` reads 669 s; that for `CCC1Oc2ccc(S(=O)(=O)N3CCC(C(=O)NCc4cccc(OC)c4)CC3)cc2NC1=O` (centres undefined), 953 s. Compound `Cc1noc(C)c1CNC(=O)C(C)Oc1cccc(Cl)c1` (centres undefined) gave an RP-LC retention time of 832 s.

The compound `CSc1cccc(NC(=O)NC2CCN(c3cc(C)cc(C)c3)C2=O)c1` (centres undefined) returned an RP-LC retention time of 929 s.

For the compound `O=C(c1cccs1)N1CCCN(c2ccc(=O)n(-c3ccccc3)n2)CC1`, the RP-LC retention time stood at 700 s. For `CC1=C(c2ccc(C)cc2)S(=O)(=O)N=C1N1CCCN(C(=O)c2cccnc2)CC1` the value was 687 s. Compound `CCn1c(=O)c(N2CCC(C(=O)NC3CCCCCCC3)CC2)nc2cccnc21` returned an RP-LC retention time of 1080 s. For the compound `Cc1cc(NC(C)C)n2nc(-c3ccc(Cl)cc3)c(C)c2n1`, the RP-LC retention time is 761 s.

The compound `COc1ccc(C(=O)N2CCC3(CC2)N=C(c2ccccc2)NO3)c(OC)c1` came in with an RP-LC retention time of 755 s. Turning to `O=C(Nc1ccc(F)c(F)c1)C1CCCN(c2nc3ccsc3c(=O)n2Cc2ccc(F)cc2)C1` (centres undefined), the RP-LC retention time is 1050 s. Take `CCOCc1nc(C2CCCN2S(=O)(=O)c2cccc3nsnc23)no1` (centres undefined): the RP-LC retention time was found to be 836 s. In turn, `Cc1ccc(-c2ccnc(SCC(=O)NCc3ccccc3)n2)cc1C` displayed an RP-LC retention time of 944 s. The result for `CN1CCCc2cc(C(CNC(=O)C(=O)Nc3ccc4c(c3)OCO4)N3CCCC3)ccc21` (centres undefined) reads 714 s; that for `Cn1cc(CCNC(=O)Nc2ccccc2Br)c2cccnc21`, 722 s; that for `O=C(CCNc1c(-c2cccc(F)c2)nc2cnccn12)NCc1ccccc1F`, 742 s. In turn, `CN1c2cc(C(=O)NC3CCN(Cc4ccccc4)CC3)ccc2C(=O)N2CCCCC21` (centres undefined) had an RP-LC retention time of 586 s. On to `CCc1ccccc1S(=O)(=O)N(C)CC1CCOC1` (centres undefined), for which the RP-LC retention time was 850 s.

The compound `CNC(=O)c1cn(CC(C)C)c(=O)c2ccccc12` displayed an RP-LC retention time of 853 s. For the compound `COc1cccc(Cn2cc(S(=O)(=O)N3CCCC3)ccc2=O)c1`, the RP-LC retention time came out at 779 s.

`O=C(NCc1csc(C2CCCN(C(=O)c3cc(F)ccc3Cl)C2)n1)C1CC1` (centres undefined): the RP-LC retention time was 750 s.

As for `CCCNC(=O)c1nc(Nc2ccc(CC)cc2)c2ccccc2n1`, the RP-LC retention time was determined as 813 s.

`CC(C)n1cnc(S(=O)(=O)N2CCC(C(=O)Nc3ccc(Cl)cc3)CC2)c1` gave an RP-LC retention time of 824 s. For `CN(C)c1ccc(C(=O)NC2CCN(c3ccc(F)cc3)C2=O)cc1` (centres undefined) the value was 778 s; for `CCNc1nc(NCC)nc(-n2cnc(SC)n2)n1`, 718 s; for `O=c1c2cc(-c3ccc(F)cc3)nn2ccn1Cc1noc(CN2CCCC2)n1`, 638 s. `COc1ccc2nc(NC(=O)C3CCN(C(=O)c4ccc(-c5noc(C)n5)cc4)CC3)sc2c1` returned an RP-LC retention time of 803 s. Compound `CCN1CCN(C(=O)c2cc3n(n2)CC(C)(C(=O)NC2CCCCCC2)N(C)C3=O)CC1` (centres undefined) gave an RP-LC retention time of 611 s. For the compound `Cc1ccc2c(NCc3ccc(F)cc3)c(-c3nc(C(C)C)no3)cnc2n1`, the RP-LC retention time is 798 s. Turning to `COc1cccc(CNC(=O)C2(C)Oc3cccnc3N(C)C2=O)c1` (centres undefined), the RP-LC retention time was 748 s. As for `COc1ccc(-n2ccn3cc(-c4ccc(F)cc4F)nc3c2=O)cc1`, the RP-LC retention time was determined as 716 s. `O=C(O)CNS(=O)(=O)c1ccc(Cl)c(-c2nnc(-c3ccccc3)o2)c1`: the RP-LC retention time came to 766 s.

For `COCc1ncc(C)n1CC1CN(C(=O)c2ocnc2C)C1`, the RP-LC retention time stood at 511 s. Compound `Cc1ccc(NC(=O)C2(C)Oc3cccnc3NC2=O)cc1` (centres undefined) registered an RP-LC retention time of 727 s.

The compound `O=C1COc2ccccc2N1Cc1nc(-c2ccc3c(c2)nnn3C2CCCC2)no1` returned an RP-LC retention time of 1030 s.

In the case of `CC(C)n1c(N2CCN(C(=O)c3ccncc3)CC2)cc(=O)n(C(C)C)c1=O`, the RP-LC retention time was 601 s. For `COCCOC(=O)C1=C(C)NC2=C(C(=O)C(C(=O)OC)C(C)C2)C1c1cccc(F)c1` (centres undefined) the value was 832 s.
